In patent US10273305B2, “Bispecific CXCR4-CD4 polypeptides with potent anti-HIV activity” (Ablynx N.V., priority 2015, dated 2019):
Several values for one entry are separate records, joined by “and”; a condition that tells them apart may be missing. Equal entries are not always repeated. Where two headings read alike, the source gives them in different places.

How the values were obtained:
[1] = system: HUT-78/HIV-1 NL4.3; experiment: HIV-1-mediated cell-cell fusion, HUT-78/NL4.3 with SupT1 cells
[2] = system: HUT-78/HIV1 IIIb; experiment: HIV-1-mediated cell-cell fusion, HUT-78/IIIb with SupT1 cells; settings: Human immunodeficiency virus 1, IIIB, read-out: IC50 syncytia formation SupT1 + HUT-78/IIIb n = 3
[3] = system: NL4.3 281F12 res.; experiment: microbe, parasite or virus in culture; format: cell-based, HIV-1; settings: Human immunodeficiency virus 1, PBMC, read-out: IC50 PBMC NL4.3 281F12 res. n = 2
[4] = system: HIV-1 NL4.3 281F12-resistant virus; experiment: microbe, parasite or virus in culture; format: cell-based
[5] = system: HIV-1 CM237 clinical isolate (clade B); experiment: HIV-1 CM237 infection of PBMCs, p24; format: cell-based; settings: Human immunodeficiency virus 1; PBMC, average 2 donors
[6] = system: dual-tropic (R5/X4) HIV-1 strain HE; experiment: microbe, parasite or virus in culture; settings: Human immunodeficiency virus 1, MT4, read-out: IC50 MT-4 HE R5/X4 n = 3
[7] = system: X4 HIV-1 NL4.3 WT; experiment: TZM-bl luciferase assay, NL4.3 WT; format: cell-based; settings: Human immunodeficiency virus 1, TZM-bl, read-out: IC50 TZM-bl X4 NL4.3 WT n = 4
[8] = system: dual-tropic R5/X4 HIV-1 HE; experiment: HIV-1 HE infection of PBMCs, p24; format: cell-based; settings: Human immunodeficiency virus 1, PBMC, read-out: IC50 PBMC HE R5/X4 n = 9
[9] = system: AMD3100 resistant virus; experiment: microbe, parasite or virus in culture; format: cell-based, HIV-1; settings: Human immunodeficiency virus 1, MT4, read-out: IC50 MT-4 AMD-3100 res.
[10] = system: HIV-1 X4 NL4.3 strain; experiment: HIV-1 NL4.3 infection of PHA-stimulated PBMCs, p24 Ag ELISA; format: cell-based
[11] = system: NL4.3 281F12 res; experiment: microbe, parasite or virus in culture; format: cell-based, HIV-1; settings: Human immunodeficiency virus 1, TZM-bl, read-out: IC50 TZM-bl X4 NL4.3 281F12 res n = 3
[12] = system: CXCR4-using (X4) HIV-1 clone NL4.3; experiment: microbe, parasite or virus in culture; format: cell-based
[13] = system: HIV-1 CI#17 clinical isolate (clade B); experiment: HIV-1 CI#17 infection of PBMCs, p24; format: cell-based; settings: Human immunodeficiency virus 1; PBMC, average 2 donors
[14] = system: HIV-1 NL4.3 3F11-resistant virus; experiment: microbe, parasite or virus in culture; format: cell-based
[15] = system: dual-tropic (R5/X4) HIV-2 ROD strain; experiment: microbe, parasite or virus in culture; settings: Human immunodeficiency virus 2, MT4, read-out: IC50 MT-4 HIV-2 ROD R5/X4 n = 3
[16] = system: NL4.3 3F11 res.; experiment: microbe, parasite or virus in culture; format: cell-based, HIV-1; settings: Human immunodeficiency virus 1, PBMC, read-out: IC50 PBMC NL4.3 3F11 res. n = 2
[17] = system: HIV-1 NL4.3 (X4); experiment: HIV-1 NL4.3 infection of U87 cells; settings: Human immunodeficiency virus 1, U-87 MG, read-out: IC50 U87 + NL 4.3 (X4) n = 3
[18] = system: NL4.3 3F11 res; experiment: microbe, parasite or virus in culture; format: cell-based, HIV-1; settings: Human immunodeficiency virus 1, TZM-bl, read-out: IC50 TZM-bl X4 NL4.3 3F11 res n = 3
[19] = system: CXCL-12 res. HIV-1 NL4.3 variant; experiment: microbe, parasite or virus in culture; format: cell-based; settings: Human immunodeficiency virus 1, MT4, read-out: IC50 MT-4 CXCL-12 res.
[20] = system: HIV-1 X4 UG270 clinical isolate (clade D); experiment: HIV-1 UG270 infection of PBMCs, p24; format: cell-based; settings: Human immunodeficiency virus 1; PBMC, average 2 donors

Work on `c1cc(CN2CCCNCCNCCCNCC2)ccc1CN1CCCNCCNCCCNCC1` [AMD3100, plerixafor] yielded an IC50 ([1]; Human immunodeficiency virus 1, HuT78, read-out: IC50 cell-cell fusion) of 1100 nM, an IC50 ([1]; Human immunodeficiency virus 1, read-out: IC50 syncytia formation SupT1 + HUT-78/NL4.3 n = 4) of 1120 nM and an IC50 [2] of 22000 nM. For the same molecule, the IC50 [3] was 57 nM, the IC50 ([4]; Human immunodeficiency virus 1, MT4, read-out: IC50 MT-4 281F12 res.) was 399 nM and the IC50 ([4]; Human immunodeficiency virus 1, MT4, read-out: IC50 against HIV-1 NL4.3 281F12res virus) was 400 nM and 0.317 µg/mL. It also gave an IC50 [5] of 10 nM, an IC90 [5] of 24 nM and an IC50 [6] of 3.9 nM. For the same molecule, the IC50 [7] was 411 nM, the IC50 [8] was 26 nM and the IC50 [9] was 404 nM. The IC50 ([10]; Human immunodeficiency virus 1, PBMC, read-out: IC50 PBMC + NL 4.3 (X4) n = 3, Table 8.1.1) was 4.5 nM, the IC50 ([10]; Human immunodeficiency virus 1, PBMC, read-out: IC50 PBMC NL4.3 WT n = 10, Table 8.3) was 4.5 nM and the IC50 ([10]; Human immunodeficiency virus 1, PBMC, read-out: IC50 PBMC NL4.3 X4 n = 10, Table 8.1.2) was 3.3 nM. It also gave an IC50 ([10]; Human immunodeficiency virus 1, PBMC, read-out: IC50 HIV-1 NL4.3 in PBMC) of 3.3 nM, an IC90 ([10]; Human immunodeficiency virus 1, PBMC, average 2 donors) of 42 nM and an IC50 ([10]; Human immunodeficiency virus 1, PBMC, average 2 donors, read-out: IC50 NL4.3 X4) of 13 nM. It also gave an IC50 [11] of 4920 nM, an IC50 ([12]; Human immunodeficiency virus 1, MT4, read-out: IC50 MT-4 + NL 4.3 (X4) n = 3) of 4.75 nM and an IC50 ([12]; Human immunodeficiency virus 1, MT4, read-out: IC50 MT-4 NL4.3 X4 n = 3) of 4.28 nM. For the same molecule, the IC50 ([12]; Human immunodeficiency virus 1, MT4, read-out: IC50 MT-4 NL4.3 wt) was 4.28 nM, the IC50 ([12]; Human immunodeficiency virus 1, MT4, read-out: IC50 X4 NL4.3 strain in MT-4 cells) was 6.26 nM and the IC50 [13] was 22 nM. The IC90 [13] was 47 nM, the IC50 ([14]; Human immunodeficiency virus 1, MT4, read-out: IC50 MT-4 3F11 res.) was 18.5 nM and the IC50 ([14]; Human immunodeficiency virus 1, MT4, read-out: IC50 against HIV-1 NL4.3 3F11res virus) was 18 nM and 0.014 µg/mL. For the same molecule, the IC50 [15] was 21.1 nM, the IC50 [16] was 20 nM and the IC50 [17] was 10 nM. For the same molecule, the IC50 [18] was 915 nM, the IC50 [19] was 50.3 nM and the IC50 [20] was 16 nM. For the same molecule, the IC90 [20] was 41 nM.
